The text below walks through data of PMC8869333, “Alpha-Glucosidase and Alpha-Amylase Inhibitory Activities, Molecular Docking, and Antioxidant Capacities of Plectranthus ecklonii Constituents” (Antioxidants, 2022).

Test [1] is described as follows: Oxygen radical absorbance capacity (ORAC) assay. The conditions noted are these: Trolox equivalents; stock solution 1 mg/mL. As for the experimental part: ORAC assay was conducted according to the previous method with slight modifications. The method measured the antioxidant scavenging capacity of thermal decomposition generated by peroxyl radical of 2,2-azobis (2-amino-propane) dihydrochloride (AAPH) as peroxyradical (ORACROO^.) generator. The loss of fluorescence of fluorescein (probe) was an indication of the extent of its oxidation through reaction with the peroxyl radical. The protective effect of an antioxidant was measured by assessing the fluorescence area under the curve (AUC) plot relative to that of blank in which no antioxidant was present. The analyzer was programmed to record the fluorescence of fluorescein every 2 min after AAPH was added. The fluorescein solution and sample were added in the wells of an illuminated 96-well plate, and 12 μL of each sample in a stock solution of 1 mg/mL was combined with 138 μL of a fluorescein working solution, followed by the addition of 50 μL of 150 mg of AAPH prepared in situ in 6 mL phosphate buffer. Absorbance was measured with a Fluoroskan spectrum plate reader with the excitation wavelength set as 485 nm and the emission wavelength at 530 nm. A calibration curve was used, using a Trolox stock solution of concentration in the range of 83–417 μM (R^2 = 0.9514). The ORAC values were calculated using a regression equation (Y = a + bX + Cx^2) between Trolox concentration (Y in μM) and the net area under the fluorescence decay curve (X). ORAC values are expressed as μMTE/mg of a test sample. Samples without perfect curve were further diluted, and the dilution factors were used for the calculation of such samples.

The nature of test [2]: Ferric-ion reducing antioxidant power (FRAP) assay. The following applies: ascorbic acid equivalents; stock solution 1 mg/mL. The procedure:
The FRAP assay was carried out in accordance with the method described previously. In a 96-well plate, 10 μL of the stock solution (1 mg/mL w/v) of the isolated compounds (1–3) was mixed with 300 μL of FRAP reagent. The FRAP reagent was prepared by mixing (10:1:1, v/v/v) of acetate buffer (300 mM, pH 3.6), tripyridyl triazine (TPTZ) (10 mM in 40 mM HCl), and FeCl3.6H2O (20 mM). Incubation commenced at room temperature for 30 min, and the plate was read at a wavelength of 593 nm in a Multiskan spectrum plate reader (Thermo Fisher Scientific). L-Ascorbic (Sigma-Aldrich, Cape Town, South Africa) was used as a standard, with concentrations varying between 0 and 1000 μM. Further dilutions were carried out with the samples that were highly concentrated, and such dilution factors were recorded and used for calculations of the affected samples. The results are expressed as μM ascorbic acid equivalents per milligram dry weight (μM AAE/g) of the test samples.

The conditions of test [3]: cited from earlier work.
Test [4] can be described thus: Trolox equivalent absorbance capacity (TEAC) assay. The following applies: Trolox equivalents; stock solution 1 mg/mL. As for the experimental part:
The TEAC assay was carried out in accordance with the method described previously. The stock solutions, which contained 7 mM of ABTS and 140 mM of K2S2O8, were prepared and kept at −2 °C. The working solution was then prepared by adding 88 μL of K2S2O8 solution to 5 mL of ABTS solution. The two solutions were mixed and allowed to react for 24 h at room temperature in the dark. Trolox was used as a standard, with concentrations ranging between 0 and 500 μM. After 24 h, the ABTS mix solution was diluted with ethanol to read a start-up absorbance (control) of approximately 2.0 (±0.1). The stock solution (1 mg/mL) of a methanol extract and purified compounds (25 μL) were allowed to react with 300 μL of ABTS in the dark at room temperature for 30 min. The absorbance was read at 734 nm at 25 °C in the plate reader. The results are expressed as μM Trolox equivalents per milligram dry weight (μM/TE/g) of the test samples.

The target in a further test is T1, alpha-glucosidase (Saccharomyces cerevisiae, UniProt P53341).
T1 construct: purchased Sigma-Aldrich
The test is described as follows: Alpha-glucosidase inhibitory activity (pNPG substrate, absorbance 405 nm). In kind it is biochemical. The procedure: The organic solvents used in this study were supplied by Merck, Cape Town, South Africa. The NMR spectra were carried out on an Avance 400 MHz spectrometer (Bruker, Rheinstetten, Germany) using deuterated chloroform. Preparative HPLC was utilized for the purification of compounds using HPLC-grade methanol and distilled water.
The reaction was stopped by adding 50 μL of sodium carbonate Na2CO3 (0.1 M). […] Each experiment was repeated three times.

T1 sequence (P53341 whole entry): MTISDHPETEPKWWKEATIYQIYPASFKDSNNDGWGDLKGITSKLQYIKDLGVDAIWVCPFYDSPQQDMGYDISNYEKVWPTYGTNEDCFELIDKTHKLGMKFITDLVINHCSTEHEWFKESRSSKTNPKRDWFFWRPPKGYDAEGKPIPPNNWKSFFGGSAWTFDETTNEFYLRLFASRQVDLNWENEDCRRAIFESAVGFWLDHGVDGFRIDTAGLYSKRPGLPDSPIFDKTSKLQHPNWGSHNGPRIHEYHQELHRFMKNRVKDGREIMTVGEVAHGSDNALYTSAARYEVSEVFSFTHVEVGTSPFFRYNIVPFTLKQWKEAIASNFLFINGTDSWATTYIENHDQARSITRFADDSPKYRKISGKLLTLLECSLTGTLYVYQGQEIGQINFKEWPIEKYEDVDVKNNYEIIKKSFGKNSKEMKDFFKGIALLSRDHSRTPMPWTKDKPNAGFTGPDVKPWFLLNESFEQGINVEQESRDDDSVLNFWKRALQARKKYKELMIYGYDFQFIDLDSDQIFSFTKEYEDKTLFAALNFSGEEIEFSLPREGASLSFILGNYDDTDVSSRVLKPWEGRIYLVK

Turning to parvifloron F [Compound 2], in test [1], the ORAC was 1726.1 ± 2.6 µM TE/g. The FRAP in test [2] amounted to 1155.5 ± 2.3 µM AAE/g. Moreover, the EC50 in test [3] (read-out: DPPH radical scavenging EC50) was 131 µM. The TEAC in test [4] worked out at 1069.3 ± 2.4 µM TE/g.

With parvifloron D [Compound 1], the ORAC in test [1] came out at 3942.9 ± 7.1 µM TE/g. In test [2], the FRAP was 1043.9 ± 2.6 µM AAE/g. In addition, the IC50 in test [3] (read-out: DPPH radical scavenging IC50) was 1300 ± 100 µM. Further, the TEAC in test [4] is 470.3 ± 2.2 µM TE/g.

Regarding `COc1cc(C(=O)OC2CC(C)(C)C3=CC=C4C=C(C(C)C)C(=O)C(O)=C4C3(C)C2)ccc1O` (centres unmarked) [Compound 3, parvifloron G], the FRAP in test [2] came out at 1455.4 ± 2.0 µM AAE/g. Moreover, in test [4], the TEAC was 3526.1 ± 0.6 µM TE/g. This compound showed an IC50 on alpha-glucosidase of 88.9 µM.

For the compound `O=C(O[C@@H]1Cc2c(O)cc(O)cc2O[C@@H]1c1cc(O)c(O)c(O)c1)c1cc(O)c(O)c(O)c1` [EGCG, epigallocatechin gallate, reference compound], in test [1], the ORAC was found to be 3976.82 ± 3.8 µM TE/g. For the same compound, the FRAP in test [2] worked out at 7524.1 ± 4.9 µM AAE/g. The TEAC in test [4] came to 4146.4 ± 19.8 µM TE/g.

One may read the EC50 as the concentration giving half of the maximal effect. As usually defined, the IC50 is the concentration that gives 50% inhibition.
